Drawing on publication PMC5424463, “A strategy based on nucleotide specificity leads to a subfamily-selective and cell-active inhibitor of N ^6-methyladenosine demethylase FTO” (Chemical Science, 2014), this text covers IC50 for two molecules.

SMILES strings stand for the structures.

Test [1] addresses T1, ALKBH5 (Homo sapiens, UniProt Q6P6C2).
T1 construct: pNIC28-Bsa4 ALKBH5 (encompassing residues 66-292); made in house; host or cells: E. coli BL21 (DE3) Rosetta T1R
In words: HPLC-based inhibition assay for ALKBH5, m6A-ssRNA substrate. The format is biochemical. The settings on record: 5-mer m6A-ssRNA substrate. As for the experimental part: Figure S4. Enzyme inhibition curves of 12 against FTO and ALKBH5, as determined by a HPLC-based assay using m6A-containing ssRNA substrates. The substrate sequences for the FTO and ALKBH5 assays are 5’-CUUGUCA(m6A)CAGCAGA-3’ and 5’-GG(m6A)CU-3’, […]
respectively, which represents >100-fold selectivity for FTO over ALKBH5.
(1 picture or pasted object on this page, not shown here) […]
chloride) over 18 min, at a flow rate of 1 mL/min at 40°C. The UV detection wavelength was set at 266 nm. The percentage inhibition was estimated based on the peak areas of the m6A-ssRNA substrate and the corresponding demethylated product. For IC50 determination, eight […]
were then calculated from the variation in percentage demethylation at different inhibitor concentrations, using nonlinear regression, with normalized dose-response fit on GraphPad […]
HPLC-based inhibition assays for AlkB and ALKBH2
The assay was modified from previously reported method.[18] A 15-mer m1A-ssDNA substrate with the sequence 5’-AAAGCAG(m1A)ATTCGAA-3 ’ (Yale University, W.M.
Keck Foundation Biotechnology Resource Laboratory) was used in this inhibition assay. The assay was performed in triplicate for each inhibitor, in a final reaction volume of 25 µL. […]

The subject of test [2] is PHD2. Also on record: method as in PMID 16858410. The note with it: known inhibitor; cited from earlier work.

T1 sequence (Q6P6C2 66-292): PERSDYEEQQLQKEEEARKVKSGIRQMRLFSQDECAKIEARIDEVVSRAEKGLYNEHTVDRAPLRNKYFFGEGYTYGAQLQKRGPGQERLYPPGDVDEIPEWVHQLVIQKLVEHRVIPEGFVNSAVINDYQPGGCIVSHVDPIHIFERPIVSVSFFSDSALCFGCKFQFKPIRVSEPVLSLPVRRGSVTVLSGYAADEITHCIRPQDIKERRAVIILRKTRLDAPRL

`O=C(O)/C=C/C(=O)NNC(=O)c1cnccc1Cc1ccccc1` [Compound 12]: the IC50 in test [1] came out at 96.5 µM.
With `O=C(O)/C=C/C(=O)NNC(=O)c1cccnc1` [Compound 21], the IC50 in test [2] was 0.082 µM.
